Assay results published in patent US20220168431A1, “METHODS OF TREATING CANCER USING TRIMETAZIDINE-BASED COMPOUNDS” (IMBRIA PHARMACEUTICALS, INC., priority 2019, published 2022).

Key:
GABAB1A = GABAB1A (Homo sapiens, UniProt Q9UBS5); type: binding; conditions: 10 μM CV-8814
Adrenergic α1B = Adrenergic α1B (Rattus norvegicus, UniProt P15823); type: binding; conditions: 10 μM CV-8814
[1] = molecular target: Nicotinic Acetylcholine α1, Bungarotoxin (Homo sapiens, UniProt P02708+P07510+Q07001); experiment: biochemical; type: binding
Cyclooxygenase COX-2 = Cyclooxygenase COX-2 (Homo sapiens, UniProt P35354); type: biochemical; conditions: 10 μM CV-8814
[2] = molecular target: Serotonin (5-Hydroxytryptamine) 5-HT2C (Homo sapiens, UniProt P28335); type: binding; conditions: 10 μM CV-8814
Cyclooxygenase COX-1 = Cyclooxygenase COX-1 (Homo sapiens, UniProt P23219); type: biochemical; conditions: 10 μM CV-8814
Glutamate, NMDA, Glycine = Glutamate, NMDA, Glycine (Rattus norvegicus, UniProt P35439); type: binding; conditions: 10 μM CV-8814
Opiate κ (OP2, KOP) = Opiate κ (OP2, KOP) (Homo sapiens, UniProt P41145); type: binding; conditions: 10 μM CV-8814
[3] = molecular target: Serotonin (5-Hydroxytryptamine) 5-HT1A (Homo sapiens, UniProt P08908); type: binding; conditions: 10 μM CV-8814
Opiate μ (OP3, MOP) = Opiate μ (OP3, MOP) (Homo sapiens, UniProt P35372); type: binding; conditions: 10 μM CV-8814
Dopamine D2S = Dopamine D2S (Homo sapiens, UniProt P14416); type: binding; conditions: 10 μM CV-8814
[4] = molecular target: Cholinesterase, Acetyl, ACES (Homo sapiens, UniProt P22303); type: biochemical; conditions: 10 μM CV-8814
Adrenergic α2B = Adrenergic α2B (Homo sapiens, UniProt P18089); type: binding; conditions: 10 μM CV-8814
Sequence of Adrenergic α2B (P18089 whole entry): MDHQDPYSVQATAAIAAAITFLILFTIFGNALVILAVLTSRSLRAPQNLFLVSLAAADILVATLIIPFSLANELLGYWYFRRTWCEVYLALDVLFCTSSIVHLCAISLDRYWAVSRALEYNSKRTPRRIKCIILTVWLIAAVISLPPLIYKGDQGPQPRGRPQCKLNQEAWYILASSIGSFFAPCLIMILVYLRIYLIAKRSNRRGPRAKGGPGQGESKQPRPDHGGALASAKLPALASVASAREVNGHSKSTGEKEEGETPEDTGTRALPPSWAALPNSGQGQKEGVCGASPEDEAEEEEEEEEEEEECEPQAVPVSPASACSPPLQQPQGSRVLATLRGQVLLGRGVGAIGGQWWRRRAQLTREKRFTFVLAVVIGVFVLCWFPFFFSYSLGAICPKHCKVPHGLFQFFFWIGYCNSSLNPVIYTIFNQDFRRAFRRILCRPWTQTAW

Adrenergic α2A = Adrenergic α2A (Homo sapiens, UniProt P08913); type: binding; conditions: 10 μM CV-8814
PPARγ = PPARγ (Homo sapiens, UniProt P37231); type: binding; conditions: 10 μM CV-8814
Sequence of PPARγ (P37231 whole entry): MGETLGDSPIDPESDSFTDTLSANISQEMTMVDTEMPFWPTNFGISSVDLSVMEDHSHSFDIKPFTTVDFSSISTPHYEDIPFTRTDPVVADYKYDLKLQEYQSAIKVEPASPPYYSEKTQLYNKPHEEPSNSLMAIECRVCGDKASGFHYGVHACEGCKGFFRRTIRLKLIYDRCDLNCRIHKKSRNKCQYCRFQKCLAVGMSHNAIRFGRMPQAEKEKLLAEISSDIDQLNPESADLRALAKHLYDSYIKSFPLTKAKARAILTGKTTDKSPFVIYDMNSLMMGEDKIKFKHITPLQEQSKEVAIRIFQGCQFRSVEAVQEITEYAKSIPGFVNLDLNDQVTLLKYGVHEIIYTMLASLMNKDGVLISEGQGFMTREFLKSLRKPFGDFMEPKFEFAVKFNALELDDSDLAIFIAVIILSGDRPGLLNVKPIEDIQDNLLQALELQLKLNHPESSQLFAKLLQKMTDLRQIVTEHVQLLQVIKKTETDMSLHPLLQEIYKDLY

Monoamine Oxidase MAO-A = Monoamine Oxidase MAO-A (Homo sapiens, UniProt P21397); type: biochemical; conditions: 10 μM CV-8814
Melanocortin MC4 = Melanocortin MC4 (Homo sapiens, UniProt P32245); type: binding; conditions: 10 μM CV-8814
Monoamine Oxidase MAO-B = Monoamine Oxidase MAO-B (Homo sapiens, UniProt P27338); type: biochemical; conditions: 10 μM CV-8814
Muscarinic M2 = Muscarinic M2 (Homo sapiens, UniProt P08172); type: binding; conditions: 10 μM CV-8814
Adrenergic β2 = Adrenergic β2 (Homo sapiens, UniProt P07550); type: binding; conditions: 10 μM CV-8814
Sequence of Adrenergic β2 (P07550 whole entry): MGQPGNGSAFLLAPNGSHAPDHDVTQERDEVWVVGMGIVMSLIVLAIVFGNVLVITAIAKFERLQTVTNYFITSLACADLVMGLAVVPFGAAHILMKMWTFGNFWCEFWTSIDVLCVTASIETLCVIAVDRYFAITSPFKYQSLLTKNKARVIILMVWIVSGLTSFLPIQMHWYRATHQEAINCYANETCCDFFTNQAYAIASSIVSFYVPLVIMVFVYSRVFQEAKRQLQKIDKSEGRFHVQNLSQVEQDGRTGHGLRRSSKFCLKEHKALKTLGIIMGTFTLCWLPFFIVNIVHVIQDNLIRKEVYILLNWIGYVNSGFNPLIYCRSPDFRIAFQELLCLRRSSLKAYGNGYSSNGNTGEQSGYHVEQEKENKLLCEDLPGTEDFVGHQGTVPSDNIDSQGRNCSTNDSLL

Adrenergic β1 = Adrenergic β1 (Homo sapiens, UniProt P08588); type: binding; conditions: 10 μM CV-8814
Androgen (Testosterone) = Androgen (Testosterone) (Homo sapiens, UniProt P10275); type: binding; conditions: 10 μM CV-8814
Sequence of Androgen (Testosterone) (P10275 whole entry): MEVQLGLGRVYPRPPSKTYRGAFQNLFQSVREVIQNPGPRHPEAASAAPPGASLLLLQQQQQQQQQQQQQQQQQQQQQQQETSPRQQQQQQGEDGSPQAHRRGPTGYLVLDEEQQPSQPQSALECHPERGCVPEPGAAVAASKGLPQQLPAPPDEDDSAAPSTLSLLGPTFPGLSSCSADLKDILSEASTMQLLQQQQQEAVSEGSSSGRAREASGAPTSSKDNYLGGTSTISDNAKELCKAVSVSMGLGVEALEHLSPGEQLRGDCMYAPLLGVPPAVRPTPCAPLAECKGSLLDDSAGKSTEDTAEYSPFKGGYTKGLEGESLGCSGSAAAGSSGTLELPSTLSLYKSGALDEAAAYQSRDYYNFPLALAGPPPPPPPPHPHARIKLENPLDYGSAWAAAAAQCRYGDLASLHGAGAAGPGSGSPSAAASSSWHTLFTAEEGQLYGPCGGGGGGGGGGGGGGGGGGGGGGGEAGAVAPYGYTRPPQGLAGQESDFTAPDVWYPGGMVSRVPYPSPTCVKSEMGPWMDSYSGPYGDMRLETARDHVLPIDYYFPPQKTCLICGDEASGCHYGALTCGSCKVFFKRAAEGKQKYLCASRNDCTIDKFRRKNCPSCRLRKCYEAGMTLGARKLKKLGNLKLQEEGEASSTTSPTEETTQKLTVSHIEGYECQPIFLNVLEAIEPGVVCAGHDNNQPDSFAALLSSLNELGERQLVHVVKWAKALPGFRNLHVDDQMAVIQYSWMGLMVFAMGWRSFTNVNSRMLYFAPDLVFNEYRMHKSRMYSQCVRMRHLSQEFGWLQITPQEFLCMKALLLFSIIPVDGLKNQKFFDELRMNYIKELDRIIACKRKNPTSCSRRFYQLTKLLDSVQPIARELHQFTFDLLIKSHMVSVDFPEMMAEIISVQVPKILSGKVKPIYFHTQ

Adenosine A2A = Adenosine A2A (Homo sapiens, UniProt P29274); type: binding; conditions: 10 μM CV-8814
Sequence of Adenosine A2A (P29274 whole entry): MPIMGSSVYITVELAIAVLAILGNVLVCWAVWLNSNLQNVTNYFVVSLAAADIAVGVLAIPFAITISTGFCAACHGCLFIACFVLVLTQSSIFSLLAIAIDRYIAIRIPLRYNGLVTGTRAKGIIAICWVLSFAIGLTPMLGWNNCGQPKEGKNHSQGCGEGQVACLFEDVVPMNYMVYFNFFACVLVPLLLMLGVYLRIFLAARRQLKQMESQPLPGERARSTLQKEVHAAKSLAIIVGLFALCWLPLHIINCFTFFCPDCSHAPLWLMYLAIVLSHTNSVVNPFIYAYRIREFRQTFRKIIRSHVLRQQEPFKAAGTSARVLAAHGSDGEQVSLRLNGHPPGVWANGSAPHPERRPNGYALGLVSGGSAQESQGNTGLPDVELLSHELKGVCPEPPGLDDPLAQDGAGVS

Cannabinoid CB2 = Cannabinoid CB2 (Homo sapiens, UniProt P34972); type: binding; conditions: 10 μM CV-8814
Cannabinoid CB1 = Cannabinoid CB1 (Homo sapiens, UniProt P21554); type: binding; conditions: 10 μM CV-8814
Sequence of Cannabinoid CB1 (P21554 whole entry): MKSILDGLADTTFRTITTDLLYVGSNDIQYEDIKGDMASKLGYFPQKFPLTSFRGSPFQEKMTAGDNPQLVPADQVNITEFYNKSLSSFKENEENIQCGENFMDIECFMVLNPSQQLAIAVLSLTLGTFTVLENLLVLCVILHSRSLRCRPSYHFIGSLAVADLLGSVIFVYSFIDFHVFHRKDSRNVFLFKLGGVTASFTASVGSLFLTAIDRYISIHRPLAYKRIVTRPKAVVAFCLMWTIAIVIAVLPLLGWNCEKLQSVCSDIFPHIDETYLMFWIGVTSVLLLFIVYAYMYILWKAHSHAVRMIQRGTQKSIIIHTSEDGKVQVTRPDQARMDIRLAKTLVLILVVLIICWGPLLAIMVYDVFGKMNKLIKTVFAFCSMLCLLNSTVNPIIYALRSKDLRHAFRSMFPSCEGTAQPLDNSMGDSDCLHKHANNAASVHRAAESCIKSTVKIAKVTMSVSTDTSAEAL

Measured: inhibition at 10 µM

Sequence of GABAB1A (Q9UBS5 15-961 limits assumed): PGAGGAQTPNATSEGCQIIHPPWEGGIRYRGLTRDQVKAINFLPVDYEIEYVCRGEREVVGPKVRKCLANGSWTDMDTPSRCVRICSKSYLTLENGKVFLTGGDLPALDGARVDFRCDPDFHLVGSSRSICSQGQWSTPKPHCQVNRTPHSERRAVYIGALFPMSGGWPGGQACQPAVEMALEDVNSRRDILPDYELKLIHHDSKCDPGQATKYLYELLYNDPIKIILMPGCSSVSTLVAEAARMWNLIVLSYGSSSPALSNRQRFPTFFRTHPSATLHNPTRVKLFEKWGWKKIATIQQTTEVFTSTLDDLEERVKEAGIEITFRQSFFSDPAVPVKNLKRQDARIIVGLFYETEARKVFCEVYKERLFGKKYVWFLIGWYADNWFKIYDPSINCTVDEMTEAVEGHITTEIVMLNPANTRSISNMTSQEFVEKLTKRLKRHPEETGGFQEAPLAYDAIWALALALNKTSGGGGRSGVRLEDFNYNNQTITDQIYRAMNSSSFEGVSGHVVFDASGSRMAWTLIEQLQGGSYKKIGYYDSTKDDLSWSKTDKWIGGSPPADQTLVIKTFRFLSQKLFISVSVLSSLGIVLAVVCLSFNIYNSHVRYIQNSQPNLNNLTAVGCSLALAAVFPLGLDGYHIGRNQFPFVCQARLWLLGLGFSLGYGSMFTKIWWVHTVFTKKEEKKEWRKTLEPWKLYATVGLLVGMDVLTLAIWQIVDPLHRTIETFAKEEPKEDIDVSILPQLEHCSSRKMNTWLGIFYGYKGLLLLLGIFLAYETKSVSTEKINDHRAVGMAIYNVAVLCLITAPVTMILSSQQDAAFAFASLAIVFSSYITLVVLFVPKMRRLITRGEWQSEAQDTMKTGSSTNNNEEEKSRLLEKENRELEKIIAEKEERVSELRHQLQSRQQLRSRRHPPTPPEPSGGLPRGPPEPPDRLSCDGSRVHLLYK
Sequence of GABAB1A (O75899 42-941 partner): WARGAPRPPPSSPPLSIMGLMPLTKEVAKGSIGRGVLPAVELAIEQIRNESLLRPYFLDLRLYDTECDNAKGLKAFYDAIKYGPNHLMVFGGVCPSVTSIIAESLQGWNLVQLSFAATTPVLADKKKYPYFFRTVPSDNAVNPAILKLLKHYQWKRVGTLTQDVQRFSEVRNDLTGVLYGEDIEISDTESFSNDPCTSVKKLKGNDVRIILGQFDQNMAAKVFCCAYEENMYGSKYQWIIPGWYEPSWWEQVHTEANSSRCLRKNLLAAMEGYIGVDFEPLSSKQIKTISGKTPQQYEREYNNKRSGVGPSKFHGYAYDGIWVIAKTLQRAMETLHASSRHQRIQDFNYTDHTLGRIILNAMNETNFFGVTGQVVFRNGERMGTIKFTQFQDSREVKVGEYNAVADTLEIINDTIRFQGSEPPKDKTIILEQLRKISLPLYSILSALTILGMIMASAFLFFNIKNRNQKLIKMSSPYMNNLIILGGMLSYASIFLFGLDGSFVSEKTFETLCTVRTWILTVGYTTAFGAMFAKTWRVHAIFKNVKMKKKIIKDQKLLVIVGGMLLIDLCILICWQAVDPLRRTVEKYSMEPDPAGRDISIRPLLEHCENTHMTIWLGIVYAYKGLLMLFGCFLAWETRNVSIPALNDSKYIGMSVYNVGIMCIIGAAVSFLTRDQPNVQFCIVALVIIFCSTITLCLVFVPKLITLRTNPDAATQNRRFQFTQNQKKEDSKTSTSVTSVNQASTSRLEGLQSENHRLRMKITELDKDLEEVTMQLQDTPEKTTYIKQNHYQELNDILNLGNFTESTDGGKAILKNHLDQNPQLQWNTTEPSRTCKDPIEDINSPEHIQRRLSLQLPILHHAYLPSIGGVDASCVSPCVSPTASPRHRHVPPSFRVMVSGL

COc1ccc(CN2CCN(CCO)CC2)c(OC)c1OC [CV-8814, 2-(4-(2,3,4-trimethoxybenzyl)piperazin-1-yl)ethan-1-01]
< 50%: all assays above
